The target in one test is Poly [ADP-ribose] polymerase 1 (Homo sapiens, UniProt P09874). Briefly: Inhibition of recombinant human full-length PARP-1 using biotinylated substrate.
T1 sequence (Q9UGN5 whole entry): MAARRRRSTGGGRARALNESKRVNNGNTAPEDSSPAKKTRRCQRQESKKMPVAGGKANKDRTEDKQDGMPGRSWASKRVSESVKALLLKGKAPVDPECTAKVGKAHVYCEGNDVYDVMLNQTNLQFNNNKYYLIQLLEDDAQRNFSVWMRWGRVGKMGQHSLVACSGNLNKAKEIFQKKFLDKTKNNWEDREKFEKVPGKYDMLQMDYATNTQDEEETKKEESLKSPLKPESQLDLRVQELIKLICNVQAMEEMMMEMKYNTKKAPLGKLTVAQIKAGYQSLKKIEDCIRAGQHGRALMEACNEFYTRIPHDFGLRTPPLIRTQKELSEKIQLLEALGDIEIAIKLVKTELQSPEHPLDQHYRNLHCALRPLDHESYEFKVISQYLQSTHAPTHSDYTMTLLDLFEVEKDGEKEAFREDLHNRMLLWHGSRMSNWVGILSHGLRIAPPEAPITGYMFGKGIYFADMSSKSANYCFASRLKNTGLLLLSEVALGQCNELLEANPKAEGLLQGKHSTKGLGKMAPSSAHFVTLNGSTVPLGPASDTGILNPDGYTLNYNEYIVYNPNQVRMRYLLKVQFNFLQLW
Poly [ADP-ribose] polymerase 1, sequence (P09874 whole entry): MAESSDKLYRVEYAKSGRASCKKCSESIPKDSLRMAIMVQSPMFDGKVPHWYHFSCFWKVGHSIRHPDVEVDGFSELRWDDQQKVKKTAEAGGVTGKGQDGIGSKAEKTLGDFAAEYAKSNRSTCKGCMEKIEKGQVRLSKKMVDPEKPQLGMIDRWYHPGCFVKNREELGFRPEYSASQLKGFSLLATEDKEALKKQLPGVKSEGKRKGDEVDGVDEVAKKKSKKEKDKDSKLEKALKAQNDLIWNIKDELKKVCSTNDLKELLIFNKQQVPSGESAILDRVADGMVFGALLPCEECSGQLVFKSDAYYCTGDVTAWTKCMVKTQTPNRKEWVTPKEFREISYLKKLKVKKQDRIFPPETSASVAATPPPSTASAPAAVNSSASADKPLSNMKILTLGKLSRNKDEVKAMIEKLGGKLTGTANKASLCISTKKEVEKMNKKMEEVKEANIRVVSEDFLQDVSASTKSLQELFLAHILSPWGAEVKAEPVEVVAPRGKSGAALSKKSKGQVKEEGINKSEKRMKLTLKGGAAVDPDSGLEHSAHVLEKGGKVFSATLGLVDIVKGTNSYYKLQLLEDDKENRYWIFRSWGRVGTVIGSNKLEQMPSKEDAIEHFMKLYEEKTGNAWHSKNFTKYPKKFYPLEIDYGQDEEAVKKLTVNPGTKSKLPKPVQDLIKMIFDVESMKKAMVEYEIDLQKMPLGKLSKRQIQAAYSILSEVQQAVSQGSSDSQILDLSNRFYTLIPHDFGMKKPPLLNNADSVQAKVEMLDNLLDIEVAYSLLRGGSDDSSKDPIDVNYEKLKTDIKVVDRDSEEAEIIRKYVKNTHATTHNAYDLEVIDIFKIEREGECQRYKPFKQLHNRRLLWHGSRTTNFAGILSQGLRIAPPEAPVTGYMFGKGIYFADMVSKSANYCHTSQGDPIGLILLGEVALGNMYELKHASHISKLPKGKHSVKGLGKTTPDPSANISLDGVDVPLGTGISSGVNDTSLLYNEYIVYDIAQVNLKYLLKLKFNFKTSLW
The IC50 is the concentration needed to halve the response being measured. As for `CC(C)C(=O)N1CCN(Cc2c(O)cc(O)c3c(=O)cc(-c4ccc(O)cc4)oc23)CC1`, the IC50 worked out at 37.9 nM.

On to `O=C(c1cccc(F)c1F)C1CCN(Cc2c(O)cc(O)c3c(=O)cc(-c4ccc(O)cc4)oc23)CC1`, for which the IC50 came to 79.2 nM.

Turning to `O=c1cc(-c2ccc(O)cc2)oc2c(CN3CCN(CC4CCCO4)CC3)c(O)cc(O)c12` (stereo not drawn), the IC50 stood at 40.4 nM.

On to `O=C(c1cccnc1)N1CCN(Cc2c(O)cc(O)c3c(=O)cc(-c4ccc(O)cc4)oc23)CC1`, for which the concentration for half-maximal inhibition (IC50) came out at 26.2 nM.

Turning to `O=c1cc(-c2ccc(O)cc2)oc2c(CN3CC=C(c4ccccc4)CC3)c(O)cc(O)c12`, the IC50 amounted to 139 nM.

In the case of `O=c1cc(-c2ccc(O)cc2)oc2c(CN3CCN(CC4CC4)CC3)c(O)cc(O)c12`, the IC50 turned out to be 54.6 nM.

In the case of `O=C(c1ccccc1)N1CCN(Cc2c(O)cc(O)c3c(=O)cc(-c4ccc(O)cc4)oc23)CC1`, the half-maximal inhibitory concentration (IC50) worked out at 50.7 nM.

As to `O=C(OCc1ccccc1)N1CCN(Cc2c(O)cc(O)c3c(=O)cc(-c4ccc(O)cc4)oc23)CC1`, the IC50 was determined as 43.8 nM.

A further test is filed under the species Homo sapiens. The test is described as follows: Selectivity index, ratio of IC50 for PARP-2 (unknown origin) to IC50 for PARP-1 (unknown origin).
On to `COc1cc(/C=N/NC(N)=S)c(Br)c(Br)c1OC`, for which the Ratio IC50 is more than 33.9.

Take `Cn1cccc1/C=C1\C(=O)NC(=O)c2ccccc21`: the Ratio IC50 was 88.9.

The next test addresses T1, Poly [ADP-ribose] polymerase 2 (Homo sapiens, UniProt Q9UGN5). Briefly: Inhibition of PARP-2 (unknown origin).
In the case of `COc1cc(/C=N/NC(N)=S)c(Br)c(Br)c1OC`, the IC50 is more than 1000 nM.

The compound `Cn1cccc1/C=C1\C(=O)NC(=O)c2ccccc21` registered an IC50 of 40000 nM.

Another test deals with T1, Poly [ADP-ribose] polymerase 2. The test is described as follows: Inhibition of recombinant human full-length PARP-2 using biotinylated substrate.
Turning to `CC(C)C(=O)N1CCN(Cc2c(O)cc(O)c3c(=O)cc(-c4ccc(O)cc4)oc23)CC1`, the IC50 stood at 2100 nM.

As to `O=C(c1cccc(F)c1F)C1CCN(Cc2c(O)cc(O)c3c(=O)cc(-c4ccc(O)cc4)oc23)CC1`, the concentration for half-maximal inhibition (IC50) came out at 4500 nM.

For `O=c1cc(-c2ccc(O)cc2)oc2c(CN3CCN(CC4CCCO4)CC3)c(O)cc(O)c12` (stereo not drawn), the IC50 turned out to be 2500 nM.

Consider `O=C(c1cccnc1)N1CCN(Cc2c(O)cc(O)c3c(=O)cc(-c4ccc(O)cc4)oc23)CC1`, for which the IC50 is 1500 nM.

Take `O=c1cc(-c2ccc(O)cc2)oc2c(CN3CC=C(c4ccccc4)CC3)c(O)cc(O)c12`: the IC50 was determined as 7900 nM.

On to `O=c1cc(-c2ccc(O)cc2)oc2c(CN3CCN(CC4CC4)CC3)c(O)cc(O)c12`, for which the IC50 amounted to 2900 nM.

As for `O=C(c1ccccc1)N1CCN(Cc2c(O)cc(O)c3c(=O)cc(-c4ccc(O)cc4)oc23)CC1`, the IC50 came to 2900 nM.

Regarding `O=C(OCc1ccccc1)N1CCN(Cc2c(O)cc(O)c3c(=O)cc(-c4ccc(O)cc4)oc23)CC1`, the IC50 came out at 2100 nM.

For another test, the species on record is Homo sapiens. Briefly: Selectivity index, ratio of IC50 for inhibition of recombinant human full-length PARP-2 to IC50 for inhibition of recombinant human full-length PARP-1.
`CC(C)C(=O)N1CCN(Cc2c(O)cc(O)c3c(=O)cc(-c4ccc(O)cc4)oc23)CC1`: the Ratio IC50 is 55.4.

For `O=C(c1cccc(F)c1F)C1CCN(Cc2c(O)cc(O)c3c(=O)cc(-c4ccc(O)cc4)oc23)CC1`, the Ratio IC50 was found to be 56.8.

As for `O=c1cc(-c2ccc(O)cc2)oc2c(CN3CCN(CC4CCCO4)CC3)c(O)cc(O)c12` (stereo not drawn), the Ratio IC50 was 61.9.

As for `O=C(c1cccnc1)N1CCN(Cc2c(O)cc(O)c3c(=O)cc(-c4ccc(O)cc4)oc23)CC1`, the Ratio IC50 worked out at 57.2.

For the compound `O=c1cc(-c2ccc(O)cc2)oc2c(CN3CC=C(c4ccccc4)CC3)c(O)cc(O)c12`, the Ratio IC50 came out at 56.6.

Take `O=c1cc(-c2ccc(O)cc2)oc2c(CN3CCN(CC4CC4)CC3)c(O)cc(O)c12`: the Ratio IC50 amounted to 53.1.

Turning to `O=C(c1ccccc1)N1CCN(Cc2c(O)cc(O)c3c(=O)cc(-c4ccc(O)cc4)oc23)CC1`, the Ratio IC50 came to 57.2.

As for `O=C(OCc1ccccc1)N1CCN(Cc2c(O)cc(O)c3c(=O)cc(-c4ccc(O)cc4)oc23)CC1`, the Ratio IC50 turned out to be 47.9.

The values are drawn from ChEMBL document CHEMBL4842357, “Discovery of Novel Apigenin-Piperazine Hybrids as Potent and Selective Poly (ADP-Ribose) Polymerase-1 (PARP-1) Inhibitors for the Treatment of Cancer” (J Med Chem, 2021).
